Values quoted from earlier work, collected in patent publication US20100221327A1, “Nanoparticulate azelnidipine formulations” (Elan Pharma International Limited, priority 2005, published 2010).
“Also recorded” adds a separate entry of the source.

CC1=C(C(=O)OC(C)C)C(c2cccc([N+](=O)[O-])c2)C(C(=O)OC2CN(C(c3ccccc3)c3ccccc3)C2)=C(N)N1 (racemic) [Azelnidipine, (±)-3-(1-Diphenylmethylazetidin-3-yl)-5-isopropyl 2-amino-1,4-dihydro-6-methyl-4-(3-nitrophenyl)-3,5-pyridinedicarboxylate]
Solubility in water: only slightly soluble; also recorded: practically insoluble
